Test results reported in ChEMBL document CHEMBL1133795, “Antagonists of the human CCR5 receptor as anti-HIV-1 agents. part 1: discovery and initial structure-activity relationships for 1 -amino-2-phenyl-4-(piperidin-1-yl)butanes” (Bioorg Med Chem Lett, 2001).

What follows are compounds tested against T1, C-C chemokine receptor type 5 (Homo sapiens, UniProt P51681) (assay: Binding affinity towards human CCR5 receptor in Chinese hamster ovary (CHO) cells using [125I]-MIP-1 alpha as radioligand at a concentration of 10000 nM).
Assay type: cell-based
Target sequence in this assay (P51681 whole entry, looked up): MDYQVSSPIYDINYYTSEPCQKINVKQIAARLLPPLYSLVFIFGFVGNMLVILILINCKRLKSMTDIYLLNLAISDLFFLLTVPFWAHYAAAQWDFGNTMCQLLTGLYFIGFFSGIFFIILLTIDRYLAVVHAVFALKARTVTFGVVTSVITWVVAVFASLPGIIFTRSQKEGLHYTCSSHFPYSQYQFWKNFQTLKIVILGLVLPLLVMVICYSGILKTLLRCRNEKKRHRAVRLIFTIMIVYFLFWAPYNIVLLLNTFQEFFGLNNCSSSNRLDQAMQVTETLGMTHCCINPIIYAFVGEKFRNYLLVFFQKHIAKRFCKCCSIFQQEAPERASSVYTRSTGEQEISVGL

| inhibition [%] | SMILES |
| --- | --- |
| 73 | CN(C[C@@H](CCN1CCC2(CC1)C[S+]([O-])c1ccccc12)c1ccc(Cl)c(Cl)c1)C(=O)N(C)c1ccccc1 (stereo partly drawn) |
| 69 | CN(C[C@@H](CCN1CCC2(CC1)C[S+]([O-])c1ccccc12)c1ccc(Cl)c(Cl)c1)C(=O)Nc1ccccc1 (stereo partly drawn) |

These compounds were tested against T1, C-C chemokine receptor type 5 (assay: Binding affinity towards human CCR5 receptor in Chinese hamster ovary (CHO) cells using [125I]-MIP-1 alpha as radioligand at a concentration of 1000 nM).
Assay type: cell-based
Target sequence in this assay (P51681 whole entry, looked up): as above

| inhibition [%] | SMILES |
| --- | --- |
| 35 | CN(C[C@@H](CCN1CCC2(CC1)C[S+]([O-])c1ccccc12)c1ccc(Cl)c(Cl)c1)C(=O)OC(C)(C)C (stereo partly drawn) |
| 40 | CN(Cc1ccccc1)C[C@@H](CCN1CCC2(CC1)C[S+]([O-])c1ccccc12)c1ccc(Cl)c(Cl)c1 (stereo partly drawn) |

What follows are compounds tested against T1, C-C chemokine receptor type 5 (assay: Binding affinity towards human CCR5 receptor in Chinese hamster ovary (CHO) cells using [125I]-MIP-1 alpha as radioligand).
Assay type: cell-based
Target sequence in this assay (P51681 whole entry): as the sequence (P51681 whole entry, looked up) above

| SMILES | IC50 [nM] |
| --- | --- |
| CN(C[C@@H](CCN1CCC2(CC1)C[S+]([O-])c1ccccc12)c1ccc(Cl)c(Cl)c1)S(=O)(=O)c1cccc(Cl)c1 (stereo partly drawn) | 70 |
| CN(C[C@@H](CCN1CCC2(CC1)C[S+]([O-])c1ccccc12)c1ccc(Cl)c(Cl)c1)S(=O)(=O)c1ccc2[nH]ccc2c1 (stereo partly drawn) | 70 |
| CN(C[C@@H](CCN1CCC2(CC1)C[S+]([O-])c1ccccc12)c1ccc(Cl)c(Cl)c1)S(=O)(=O)c1cccc2cccnc12 (stereo partly drawn) | 90 |
| CN(C[C@@H](CCN1CCC2(CC1)C[S+]([O-])c1ccccc12)c1ccc(Cl)c(Cl)c1)S(=O)(=O)C1CCCCC1 (stereo partly drawn) | 100 |
| CN(C[C@@H](CCN1CCC2(CC1)C[S+]([O-])c1ccccc12)c1ccc(Cl)c(Cl)c1)C(=O)Oc1ccccc1 (stereo partly drawn) | 780 |
| CN(C[C@@H](CCN1CCC2(CC1)C[S+]([O-])c1ccccc12)c1ccc(Cl)c(Cl)c1)S(=O)(=O)c1ccc(Cl)cc1 (stereo partly drawn) | 40 |
| CN(C[C@@H](CCN1CCC2(CC1)CS(=O)(=O)c1ccccc12)c1ccc(Cl)c(Cl)c1)S(=O)(=O)c1cccs1 | 120 |
| CCN(C[C@@H](CCN1CCC2(CC1)CS(=O)(=O)c1ccccc12)c1ccc(Cl)c(Cl)c1)S(=O)(=O)c1ccccc1 | 160 |
| CN(C[C@@H](CCN1CCC2(CC1)C[S+]([O-])c1ccccc12)c1ccc(Cl)c(Cl)c1)S(=O)(=O)c1cccnc1 (stereo partly drawn) | 100 |
| CN(C[C@@H](CCN1CCC2(CC1)C[S+]([O-])c1ccccc12)c1ccc(Cl)c(Cl)c1)S(=O)(=O)c1cccc2ccccc12 (stereo partly drawn) | 360 |
| CN(C[C@@H](CCN1CCC2(CC1)CS(=O)(=O)c1ccccc12)c1ccc(Cl)c(Cl)c1)S(=O)(=O)c1ccc([N+](=O)[O-])cc1 | 60 |
| CN(Cc1ccccc1)C[C@@H](CCN1CCC2(CC1)CS(=O)(=O)c1ccccc12)c1ccc(Cl)c(Cl)c1 | 1000 |
| CN(C[C@@H](CCN1CCC2(CC1)C[S+]([O-])c1ccccc12)c1ccc(Cl)c(Cl)c1)S(=O)(=O)c1ccccc1Cl (stereo partly drawn) | 80 |
| CN(C[C@@H](CCN1CCC2(CC1)C[S+]([O-])c1ccccc12)c1ccc(Cl)c(Cl)c1)S(=O)(=O)c1ccc(-c2ccccc2)cc1 (stereo partly drawn) | 40 |
| CN(C)S(=O)(=O)N(C)C[C@@H](CCN1CCC2(CC1)C[S+]([O-])c1ccccc12)c1ccc(Cl)c(Cl)c1 (stereo partly drawn) | 340 |
| CCN(C[C@@H](CCN1CCC2(CC1)CSc1ccccc12)c1ccc(Cl)c(Cl)c1)S(=O)(=O)c1ccccc1 | 10000 |

The next lines start with the values.

| IC50 [nM] | SMILES |
| --- | --- |
| 120 | CN(C[C@@H](CCN1CCC2(CC1)C[S+]([O-])c1ccccc12)c1ccc(Cl)c(Cl)c1)S(=O)(=O)c1cnc2ccccc2c1 (stereo partly drawn) |
| 60 | CN(C[C@@H](CCN1CCC2(CC1)C[S+]([O-])c1ccccc12)c1ccc(Cl)c(Cl)c1)S(=O)(=O)c1ccc2ccccc2c1 (stereo partly drawn) |
| 60 | CN(C[C@@H](CCN1CCC2(CC1)C[S+]([O-])c1ccccc12)c1ccc(Cl)c(Cl)c1)S(=O)(=O)c1cccs1 (stereo partly drawn) |
| 230 | O=S(=O)(NC[C@@H](CCN1CCC2(CC1)C[S+]([O-])c1ccccc12)c1ccc(Cl)c(Cl)c1)c1ccccc1 (stereo partly drawn) |
| 1400 | CCCCCCCCS(=O)(=O)N(C)C[C@@H](CCN1CCC2(CC1)C[S+]([O-])c1ccccc12)c1ccc(Cl)c(Cl)c1 (stereo partly drawn) |
| 130 | CCN(C[C@@H](CCN1CCC2(CC1)C[S+]([O-])c1ccccc12)c1ccc(Cl)c(Cl)c1)S(=O)(=O)c1ccccc1 (stereo partly drawn) |
| 640 | CN(C[C@@H](CCN1CCC2(CC1)C[S+]([O-])c1ccccc12)c1ccc(Cl)c(Cl)c1)C(=O)Cc1ccccc1 (stereo partly drawn) |
| 100 | CN(C[C@@H](CCN1CCC2(CC1)C[S+]([O-])c1ccccc12)c1ccc(Cl)c(Cl)c1)S(=O)(=O)C1CCCC1 (stereo partly drawn) |
| 150 | CN(C[C@@H](CCN1CCC2(CC1)CS(=O)(=O)c1ccccc12)c1ccc(Cl)c(Cl)c1)S(=O)(=O)c1cccc([N+](=O)[O-])c1 |
| 340 | CN(C[C@@H](CCN1CCC2(CC1)C[S+]([O-])c1ccccc12)c1ccc(Cl)c(Cl)c1)S(=O)(=O)c1cn(C)cn1 (stereo partly drawn) |
| 590 | CN(C[C@@H](CCN1CCC2(CC1)C[S+]([O-])c1ccccc12)c1ccc(Cl)c(Cl)c1)S(=O)(=O)Cc1ccccc1 (stereo partly drawn) |
| 1600 | O=S(=O)(NC[C@@H](CCN1CCC2(CC1)CSc1ccccc12)c1ccc(Cl)c(Cl)c1)c1ccccc1 |
| 1000 | CN(C[C@@H](CCN1CCC2(CC1)CSc1ccccc12)c1ccc(Cl)c(Cl)c1)S(=O)(=O)c1ccccc1 |
| 850 | CN(C[C@@H](CCN1CCC2(CC1)C[S+]([O-])c1ccccc12)c1ccc(Cl)c(Cl)c1)S(C)(=O)=O (stereo partly drawn) |
| 100 | CN(C[C@@H](CCN1CCC2(CC1)CS(=O)(=O)c1ccccc12)c1ccc(Cl)c(Cl)c1)S(=O)(=O)c1ccccc1 |
| 35 | CN(C[C@@H](CCN1CCC2(CC1)C[S+]([O-])c1ccccc12)c1ccc(Cl)c(Cl)c1)S(=O)(=O)c1ccccc1 (stereo partly drawn) |
| 40 | COc1ccc(S(=O)(=O)N(C)C[C@@H](CCN2CCC3(CC2)C[S+]([O-])c2ccccc23)c2ccc(Cl)c(Cl)c2)cc1 (stereo partly drawn) |

Each compound was assayed against T1, C-C chemokine receptor type 5 (assay: (§1) Binding affinity towards human CCR5 receptor in Chinese hamster ovary (CHO) cells using [125I]-MIP-1 alpha as radioligand at a concentration of 4000 nM).
Assay type: cell-based
Target sequence in this assay (P51681 whole entry, looked up): as above

| inhibition [%] | SMILES |
| --- | --- |
| 2 | CN(C[C@@H](CCN1CCC2(CC1)CS(=O)(=O)c1ccccc12)c1ccc(Cl)c(Cl)c1)C(=O)c1ccccc1 |
| 0 | CNC[C@@H](CCN1CCC2(CC1)C[S+]([O-])c1ccccc12)c1ccc(Cl)c(Cl)c1 (stereo partly drawn) |
| 22 | CN(C[C@@H](CCN1CCC2(CC1)C[S+]([O-])c1ccccc12)c1ccc(Cl)c(Cl)c1)C(=O)c1ccccc1 (stereo partly drawn) |
| 0 | CN(C[C@@H](CCN1CCC2(CC1)CSc1ccccc12)c1ccc(Cl)c(Cl)c1)C(=O)c1ccccc1 |
| 20 | CN(C[C@@H](CCN1CCC2(CC1)C[S+]([O-])c1ccccc12)c1ccc(Cl)c(Cl)c1)S(=O)(=O)c1ccsc1 (stereo partly drawn) |

These compounds were tested against T1, C-C chemokine receptor type 5 (assay: as §1).
Assay type: cell-based
Target sequence in this assay (P51681 whole entry): as the sequence (P51681 whole entry, looked up) above

| IC50 [nM] | SMILES |
| --- | --- |
| > 4000 | CN(C[C@@H](CCN1CCC2(CC1)C[S+]([O-])c1ccccc12)c1ccc(Cl)c(Cl)c1)S(=O)(=O)c1ccsc1 (stereo partly drawn) |
